Measured values published in ChEMBL document CHEMBL1201862, “PubChem BioAssay data set” (2004).
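All cell lines were grown in 96-well plates and treated with compound for 48 hours. Abbreviation: GI50, concentration required for 50% inhibition of growth.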 The source made the active and inactive calls. No stated cut-off is given here; in the data, active = GI50 up to about 1.1 µM and inactive = higher.

Legend:
Assay in all cases: NCI anticancer screen, dose series, 48 h
SW-620 = tested on: SW-620
TK-10 = tested on: TK-10
MOLT-4 = tested on: MOLT-4
SF-295 = tested on: SF-295
M14 = tested on: M14
NCI-H522 = tested on: NCI-H522
A549 = tested on: A549
A498 = tested on: A498
PC-3 = tested on: PC-3
T47D = tested on: T47D
RPMI-8226 = tested on: RPMI-8226
SK-OV-3 = tested on: SK-OV-3
Hs-578T = tested on: Hs-578T
786-0 = tested on: 786-0
HOP-62 = tested on: HOP-62
BT-549 = tested on: BT-549
SN12C = tested on: SN12C
DU-145 = tested on: DU-145
EKVX = tested on: EKVX
OVCAR-5 = tested on: OVCAR-5
IGROV-1 = tested on: IGROV-1
SK-MEL-2 = tested on: SK-MEL-2
OVCAR-8 = tested on: OVCAR-8
OVCAR-4 = tested on: OVCAR-4
HCC 2998 = tested on: HCC 2998
OVCAR-3 = tested on: OVCAR-3
HCT-15 = tested on: HCT-15
HOP-92 = tested on: HOP-92
HT-29 = tested on: HT-29
HCT-116 = tested on: HCT-116
SNB-19 = tested on: SNB-19
K562 = tested on: K562
NCI-H226 = tested on: NCI-H226
LOX IMVI = tested on: LOX IMVI
SF-539 = tested on: SF-539
UACC-257 = tested on: UACC-257
MDA-MB-435 = tested on: MDA-MB-435
CAKI-1 = tested on: CAKI-1
MDA-N = tested on: MDA-N
NCI-H460 = tested on: NCI-H460
SF-268 = tested on: SF-268
COLO 205 = tested on: COLO 205
UACC-62 = tested on: UACC-62
NCI-H23 = tested on: NCI-H23
SNB-75 = tested on: SNB-75
ACHN = tested on: ACHN
MCF7 = tested on: MCF7
KM12 = tested on: KM12
U-251 = tested on: U-251
HL-60 = tested on: HL-60
MDA-MB-231 = tested on: MDA-MB-231
UO-31 = tested on: UO-31
NCI/ADR-RES = tested on: NCI/ADR-RES
RXF 393 = tested on: RXF 393
CCRF-CEM = tested on: CCRF-CEM
SR = tested on: SR
SK-MEL-28 = tested on: SK-MEL-28
Malme-3M = tested on: Malme-3M
SK-MEL-5 = tested on: SK-MEL-5

Measured: GI50

CC1=CC(=O)/C(=C/n2c(=S)[nH]c3ccccc32)C(=O)O1
active: HL-60 < 0.01 µM
> 100 µM: HCT-15
inactive: SW-620 > 100 µM | TK-10 > 100 µM | MOLT-4 > 100 µM | SF-295 > 100 µM | M14 > 100 µM | NCI-H522 > 100 µM | A549 > 100 µM | A498 > 100 µM | PC-3 > 100 µM | T47D > 100 µM | RPMI-8226 > 100 µM | SK-OV-3 > 100 µM | Hs-578T 72.8 µM | 786-0 > 100 µM | HOP-62 > 100 µM | BT-549 > 100 µM | SN12C > 100 µM | DU-145 > 100 µM | EKVX 76.4 µM | OVCAR-5 > 100 µM | IGROV-1 > 100 µM | SK-MEL-2 > 100 µM | OVCAR-8 > 100 µM | OVCAR-4 > 100 µM | HCC 2998 > 100 µM | OVCAR-3 > 100 µM | HOP-92 > 100 µM | HT-29 > 100 µM | HCT-116 > 100 µM | SNB-19 > 100 µM | K562 > 100 µM | NCI-H226 > 100 µM | LOX IMVI > 100 µM | SF-539 > 100 µM | UACC-257 > 100 µM | MDA-MB-435 > 100 µM | CAKI-1 > 100 µM | MDA-N > 100 µM | NCI-H460 > 100 µM | SF-268 > 100 µM | COLO 205 > 100 µM | UACC-62 > 100 µM | NCI-H23 > 100 µM | SNB-75 35.7 µM | ACHN > 100 µM | MCF7 > 100 µM | KM12 > 100 µM | U-251 > 100 µM | MDA-MB-231 > 100 µM | UO-31 > 100 µM | NCI/ADR-RES > 100 µM | RXF 393 51.5 µM | CCRF-CEM 58.9 µM

CCOP(=O)(O)C1C(CO)OC(n2ccc(=O)[nH]c2=O)C1O (stereo not given)
inactive: SW-620 > 100 µM | TK-10 > 100 µM | MOLT-4 > 100 µM | SF-295 > 100 µM | SR > 100 µM | M14 > 100 µM | NCI-H522 > 100 µM | A549 > 100 µM | A498 > 100 µM | PC-3 > 100 µM | T47D > 100 µM | RPMI-8226 > 100 µM | Hs-578T > 100 µM | 786-0 > 100 µM | HOP-62 > 100 µM | BT-549 > 100 µM | SN12C > 100 µM | EKVX > 100 µM | IGROV-1 > 100 µM | SK-MEL-2 > 100 µM | OVCAR-8 > 100 µM | OVCAR-4 > 100 µM | HCC 2998 > 100 µM | OVCAR-3 > 100 µM | HOP-92 > 100 µM | SK-MEL-28 > 100 µM | HT-29 > 100 µM | Malme-3M > 100 µM | HCT-116 > 100 µM | SNB-19 > 100 µM | K562 > 100 µM | NCI-H226 > 100 µM | LOX IMVI > 100 µM | SF-539 > 100 µM | SK-MEL-5 > 100 µM | UACC-257 > 100 µM | CAKI-1 > 100 µM | MDA-N > 100 µM | NCI-H460 > 100 µM | SF-268 > 100 µM | UACC-62 > 100 µM | SNB-75 > 100 µM | ACHN > 100 µM | KM12 > 100 µM | HL-60 > 100 µM | MDA-MB-231 > 100 µM | UO-31 > 100 µM | RXF 393 > 100 µM | CCRF-CEM > 100 µM
> 100 µM: HCT-15
